Test results published in patent US10981879B2, “Thioether triazolopyridine and triazolopyrimidine inhibitors of myeloperoxidase” (BRISTOL-MYERS SQUIBB COMPANY, priority 2014, dated 2021).
pIC50: −log10 of the molar value.

target: myeloperoxidase (MPO) (Homo sapiens (Human), UniProt P05164); experiment: MPO chlorination assay (APF); type: biochemical; conditions: MPO chlorination assay, ranges given; read-out: MPO chlorination assay IC50
Description: MPO chlorination activity was measured in 100 mM KPi (pH 7.4) by utilizing the non-fluorescent reagent Aminophenyl fluorescein (APF, Invitrogen catalog #A36003). APF is cleaved by (—OCl) to yield the fluorescent compound fluorescein. Reactions were carried out in 50 μL total volume by adding a 25 μL mixture of 200 pM myeloperoxidase and 120 mM NaCl to 100 nL inhibitor in 100% DMSO in a 384 well, non-binding surface clear bottom plate (CORNING® #3655). Enzyme, inhibitor, and chloride were preincubated for ten minutes at rt.
After the ten minute preincubation, 25 μL of an APF mixture containing […], 120 mM NaCl and 10 μM H2O2 was added to the plate using the internal dispensing system of a Hammatsu FDSS 6000. Kinetic determinations were carried out immediately on the FDSS 6000 (3 minute kinetic read, 1 read every second, ex: 485 nm, em: 535 nm). IC50 values for inhibitors were calculated by taking the slope of the linear portion of the kinetic measurement (20 seconds to ˜80-120 secs). […]
[formula] where A=minimal Y value (activity level of inhibited sample), B=maximal Y value (activity level of uninhibited sample), C=Log IC50, D=Hill Slope, x=concentration of inhibitor. EPX Bromination Assay

myeloperoxidase (MPO), sequence (P05164 49-745): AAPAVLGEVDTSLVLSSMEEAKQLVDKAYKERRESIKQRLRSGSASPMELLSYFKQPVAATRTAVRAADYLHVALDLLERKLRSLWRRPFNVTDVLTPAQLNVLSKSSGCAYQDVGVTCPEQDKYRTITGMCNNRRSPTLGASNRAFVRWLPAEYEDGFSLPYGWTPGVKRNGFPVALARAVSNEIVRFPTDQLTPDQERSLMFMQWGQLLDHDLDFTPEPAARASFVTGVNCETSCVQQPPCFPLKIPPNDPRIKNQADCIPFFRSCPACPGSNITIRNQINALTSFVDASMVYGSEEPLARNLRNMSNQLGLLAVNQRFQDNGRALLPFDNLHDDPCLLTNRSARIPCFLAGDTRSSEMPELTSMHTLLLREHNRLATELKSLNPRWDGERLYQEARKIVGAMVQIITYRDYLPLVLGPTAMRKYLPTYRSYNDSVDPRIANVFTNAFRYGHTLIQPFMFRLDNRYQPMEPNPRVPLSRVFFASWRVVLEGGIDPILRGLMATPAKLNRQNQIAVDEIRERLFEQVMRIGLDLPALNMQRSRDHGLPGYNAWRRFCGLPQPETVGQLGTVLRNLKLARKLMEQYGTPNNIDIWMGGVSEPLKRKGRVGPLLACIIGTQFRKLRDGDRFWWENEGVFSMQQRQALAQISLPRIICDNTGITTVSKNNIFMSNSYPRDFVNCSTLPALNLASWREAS

Row | SMILES | pIC50
1 | Cc1nn(Cc2ccccc2)c(Cl)c1CSc1nc(N)nc2[nH]nnc12 [Example 159, 7-(((1-benzyl-5-chloro-3-methyl-1H-pyrazol-4-yl)methyl)thio)-3H-[1,2,3] triazolo[4,5-d]pyrimidin-5-amine] | 6.00 to 6.70
2 | Nc1cc(SCc2ccccc2C(F)(F)F)c2nn[nH]c2n1 [Example 5, 7-((2-(trifluoromethyl)benzyl)thio)-3H-[1,2,3] triazolo[4,5-b]pyridin-5-amine] | ≥ 7.22
3 | CN(C)CCNC(=O)c1cccc(-n2cc(CSc3cc(N)nc4[nH]nnc34)c(C(F)F)n2)c1 [Example 149, 3-(4-(((5-amino-3H-[1,2,3]triazolo[4,5-b]pyridin-7-yl)thio)methyl)-3-(difluoromethyl)-1H-pyrazol-1-yl)-N-(2-(dimethylamino)ethyl) benzamide] | 6.70 to 7.22
4 | Nc1cc(SCc2cn(-c3ccccc3)nc2C2CC2)c2nn[nH]c2n1 [Example 134, 7-(((3-Cyclopropyl-1-phenyl-1H-pyrazol-4-yl)methyl)thio)-3H-[1,2,3]triazolo[4,5-b]pyridin-5-amine] | ≥ 7.22
5 | Nc1cc(SCc2cc(OC(F)(F)F)ccc2F)c2nn[nH]c2n1 [Example 49, 7-((2-fluoro-5-(trifluoromethoxy)benzyl)thio)-3H-[1,2,3]triazolo[4,5-b]pyridin-5-amine] | 6.70 to 7.22
6 | N#Cc1cccc(Cl)c1CSc1cc(N)nc2[nH]nnc12 [Example 117, 2-(((5-amino-3H-[1,2,3]triazolo[4,5-b]pyridin-7-yl)thio)methyl)-3-chlorobenzonitrile] | ≥ 7.22
7 | Cn1nc(-c2ccccc2)c(Cl)c1CSc1cc(N)nc2[nH]nnc12 [Example 112, 7-(((4-chloro-1-methyl-3-phenyl-1H-pyrazol-5-yl)methyl)thio)-3H-[1,2,3] triazolo[4,5-b]pyridin-5-amine] | ≥ 7.22
8 | N#Cc1cc(Cl)ccc1CSc1cc(N)nc2[nH]nnc12 [Example 74, 2-(((5-amino-3H-[1,2,3]triazolo[4,5-b]pyridin-7-yl)thio)methyl)-5-chlorobenzonitrile] | ≥ 7.22
9 | Nc1cc(SCc2cn(-c3ccccn3)nc2C(F)(F)F)c2nn[nH]c2n1 [Example 135, 7-(((1-(pyridin-2-y1)-3-(trifluoromethyl)-1H-pyrazol-4-yl)methyl)thio)-3H-[1,2,3] triazolo[4,5-b]pyridin-5-amine] | ≥ 7.22
10 | Nc1cc(SCc2cccc(CO)n2)c2nn[nH]c2n1 [Example 25, (6-(((5-amino-3H-[1,2,3]triazolo[4,5-b]pyridin-7-yl)thio)methyl)pyridin-2-yl) methanol] | 6.70 to 7.22
11 | CN(C)Cc1cccc(CSc2cc(N)nc3[nH]nnc23)c1 [Example 93, 7-((3-((dimethylamino)methyl)benzyl)thio)-3H-[1,2,3]triazolo[4,5-b]pyridin-5-amine] | ≥ 7.22
12 | Nc1cc(SCc2c(F)cc(Cl)cc2F)c2nn[nH]c2n1 [Example 23, 7-((4-chloro-2,6-difluorobenzyl)thio)-3H-[1,2,3]triazolo[4,5-b]pyridin-5-amine] | ≥ 7.22
13 | N#Cc1ccc(-n2cccn2)c(CSc2cc(N)nc3[nH]nnc23)c1 [Example 132, 3-(((5-amino-3H-[1,2,3]triazolo[4,5-b]pyridin-7-yl)thio)methyl)-4-(1H-pyrazol-1-yl) benzonitrile] | 6.70 to 7.22
14 | N#Cc1ccc(C2CC2)c(CSc2nc(N)nc3[nH]nnc23)c1 [Example 161, 3-(((5-amino-3H-[1,2,3]triazolo[4,5-d]pyrimidin-7-yl)thio)methyl)-4-cyclopropylbenzonitrile] | 6.00 to 6.70
15 | Nc1cc(SCc2cccc3cccnc23)c2nn[nH]c2n1 [Example 125, 7-((quinolin-8-ylmethyl)thio)-3H-[1,2,3] triazolo[4,5-b]pyridin-5-amine] | ≥ 7.22
16 | Nc1cc(SCc2cn(-c3cccnc3)nc2C(F)(F)F)c2nn[nH]c2n1 [Example 136] | ≥ 7.22

Row | SMILES | pIC50
17 | N#Cc1ccc(F)c(CSc2cc(N)nc3[nH]nnc23)c1 [Example 123, 3-(((5-amino-3H-[1,2,3]triazolo[4,5-b]pyridin-7-yl)thio)methyl)-4-fluorobenzonitrile] | 6.70 to 7.22
18 | CCOC(=O)C(Sc1cc(N)nc2[nH]nnc12)c1ccccc1 (centres unmarked) [Example 106, ethyl 2-((5-amino-3H-[1,2,3]triazolo[4,5-b]pyridin-7-yl)thio)-2-phenylacetate] | 6.70 to 7.22
19 | Nc1cc(SCc2ccccc2)c2nn[nH]c2n1 [Example 1, 7-(Benzylthio)-3H-[1,2,3]triazolo[4,5-b]pyridin-5-amine] | ≥ 7.22
20 | CN(C)Cc1ccccc1-n1cc(CSc2cc(N)nc3[nH]nnc23)c(C(F)F)n1 [Example 150, 7-(((3-(difluoromethyl)-1-(2-((dimethylamino)methyl)phenyl)-1H-pyrazol-4-yl)methyl)thio)-3H-[1,2,3]triazolo [4,5-b]pyridin-5-amine] | ≥ 7.22
21 | Nc1cc(SC(CCCNCc2ccccc2)c2ccccc2)c2nn[nH]c2n1 (centres unmarked) [Example 14, 7-((4-(Benzylamino)-1-phenylbutyl)thio)-3H-[1,2,3]triazolo[4,5-b]pyridin-5-amine] | ≥ 7.22
22 | N#Cc1cccc(-n2ccnc2)c1CSc1cc(N)nc2[nH]nnc12 [Example 131, 2-(((5-amino-3H-[1,2,3]triazolo[4,5-b]pyridin-7-yl)thio)methyl)-3-(1H-imidazol-1-yl)benzonitrile] | 6.00 to 6.70
23 | CN(C)Cc1ccccc1CSc1cc(N)nc2[nH]nnc12 [Example 96, 7-((2-((dimethylamino)methyl)benzyl)thio)-3H-[1,2,3]triazolo[4,5-b]pyridin-5-amine] | 6.70 to 7.22
24 | Cn1nc(C2CC2)c(Cl)c1CSc1cc(N)nc2[nH]nnc12 [Example 111, 7-(((4-chloro-3-cyclopropyl-1-methyl-1H-pyrazol-5-yl)methyl)thio)-3H-[1,2,3] triazolo[4,5-b]pyridin-5-amine] | 6.70 to 7.22
25 | CS(=O)(=O)c1cc(Cl)ccc1CSc1cc(N)nc2[nH]nnc12 [Example 18, 7-((4-chloro-2-(methylsulfonyl)benzyl)thio)-3H-[1,2,3]triazolo[4,5-b]pyridin-5-amine] | ≥ 7.22
26 | Nc1cc(SCc2ccccc2-c2ccccn2)c2nn[nH]c2n1 [Example 92, 7-((2-(pyridin-2-yl)benzyl)thio)-3H-[1,2,3]triazolo[4,5-b]pyridin-5-amine] | 6.70 to 7.22
27 | Nc1cc(SCc2cn(-c3ccncc3)nc2C(F)(F)F)c2nn[nH]c2n1 [Example 137] | ≥ 7.22
28 | Cc1nn(-c2cccc(F)c2)nc1CSc1cc(N)nc2[nH]nnc12 [Example 67, 7-(((2-(3-fluorophenyl)-5-methyl-2H-1,2,3-triazol-4-yl)methyl)thio)-3H-[1,2,3] triazolo[4,5-b]pyridin-5-amine] | 6.00 to 6.70
29 | CC(Sc1cc(N)nc2[nH]nnc12)c1cccnc1 (centres unmarked) [Example 107, 7-((1-(pyridin-3-yl)ethyl)thio)-3H-[1,2,3]triazolo[4,5-b]pyridin-5-amine] | 6.70 to 7.22
30 | N#Cc1ccc(OC(F)F)cc1CSc1cc(N)nc2[nH]nnc12 [Example 109] | ≥ 7.22
31 | N#Cc1ccc(C2CC2)cc1CSc1cc(N)nc2[nH]nnc12 [Example 87, 2-(((5-amino-3H-[1,2,3]triazolo[4,5-b]pyridin-7-yl)thio)methyl)-4-cyclopropylbenzonitrile] | ≥ 7.22
32 | Cn1nc(C2CC2)cc1CSc1cc(N)nc2[nH]nnc12 [Example 100, 7-(((3-cyclopropyl-1-methyl-1H-pyrazol-5-yl)methyl)thio)-3H-[1,2,3]triazolo[4,5-b]pyridin-5-amine] | 6.70 to 7.22
